This passage reports IC50 results from patent US8017612B2, “Piperazine compound and use thereof as a HCV polymerase inhibitor” (priority 2006, dated 2011).

Structures are written as SMILES. Counter-ions that a name gives are not always drawn.

The target of assay [1] is T1, HCV polymerase (NS5B) type 1b (Hepatitis C virus genotype 1b, UniProt P26663).
T1 construct: a region encoding NS5B (J Virol 1991 March, 65(3), 1105-13, 544 amino acids after deletion of 47 amino acids on the C-terminal); 6xHis (C); made in house; host or cells: Escherichia coli
As to the kind of experiment: Assay of enzyme (HCV polymerase) inhibitory activity, type 1b enzyme. In kind it is biochemical, HCV BK strain (type 1b). The essentials:
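NS5B from HCV BK strain (type 1b), C-terminal 47 aa deleted, C-terminal His6-tagged, E. coli-expressed, 0.5 μg/ml, with ~450 nt substrate RNA carrying the 3′ UTR (polyU, 3′X) at 5 μg/ml. Incubation 60 min at 25 °C with 50 μM ATP/GTP/CTP, 2 μM UTP plus [3H]UTP, pH 7.5 Tris.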

The target in assay [2] is T2, HCV polymerase (NS5B) type 1a (Hepatitis C virus genotype 1a, UniProt P26664).
T2 construct: made in house; host or cells: Escherichia coli (by the 'similar method' of the 1b enzyme)
The assay can be described thus: Assay of enzyme (HCV polymerase) inhibitory activity, type 1a enzyme. In kind it is biochemical, HCV type 1a (cloned from the blood of patients). In a few lines:
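Patient-derived type 1a NS5B (C-terminal 47-aa deletion, His-tagged, E. coli-expressed) at 1.5 μg/ml was reacted with 5 μg/ml 3′UTR-containing substrate RNA, 50 μM ATP/GTP/CTP, 2 μM UTP plus [3H]UTP, pH 7.5, 25° C for 60 min. TCA-precipitated RNA radioactivity was counted; IC50 from ± compound.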

The mark [3] stands for this setting: HCV polymerase inhibitory activity (IC50), 1b, type 1b enzyme 0.5 μg/ml, 25° C., 60 min.
The mark [4] stands for this setting: HCV polymerase inhibitory activity (IC50), 1a, type 1a enzyme 1.5 μg/ml, 25° C., 60 min.
Where [5] appears, read: HCV polymerase inhibitory activity IC50, 1b, type 1b enzyme.
The mark [6] stands for this setting: HCV polymerase inhibitory activity IC50, 1a, type 1a enzyme.

One may read the IC50 as the point on the concentration scale where inhibition reaches its midpoint. Read a high IC50 as a need for much substance. On to `Cc1nnn(CC(=O)N2CCN(S(=O)(=O)c3ccc(OC(F)(F)F)cc3)[C@@H](C(=O)NCc3ccc(C(F)(F)C(F)(F)F)cc3)C2)n1` [Example 551, (R)-4-[2-(5-methyl-tetrazol-2-yl)-acetyl]-1-(4-trifluoromethoxy-benzenesulfonyl)-piperazine-2-carboxylic acid 4-pentafluoroethyl-benzylamide], for which the half-inhibitory concentration (IC50) in assay [1] (setting [3]) and in assay [2] (setting [4]) was 100 to 1000 nM in each case.
Take `CCC(=O)N1CCN(S(=O)(=O)c2ccc(I)cc2)C(C(=O)NCc2ccc(N(C)C)cc2)C1` (centres unmarked) [Example 130, 1-(4-iodo-benzenesulfonyl)-4-propionyl-piperazine-2-carboxylic acid 4-dimethylamino-benzylamide]: the IC50 in assay [1] (setting [3]) and in assay [2] (setting [4]) was over 1000 nM each time.
For `CCc1ccc(S(=O)(=O)N2CCN(C(C)=O)CC2C(=O)NCc2ccc(C(F)(F)F)cc2)cc1` (centres unmarked) [Example 60, 4-acetyl-1-(4-ethyl-benzenesulfonyl)-piperazine-2-carboxylic acid 4-trifluoromethyl-benzylamide], the IC50 in assay [1] (setting [3]) and in assay [2] (setting [4]) was over 1000 nM in each case.
For `CC(=O)N1CCN(S(=O)(=O)c2ccc(C(C)C)cc2)C(C(=O)NCc2ccc(NC(=O)C(C)(C)C)cc2)C1` (centres unmarked) [Example 98, 4-acetyl-1-(4-isopropyl-benzenesulfonyl)-piperazine-2-carboxylic acid 4-(2,2-dimethyl-propionylamino)-benzylamide], the IC50 in assay [1] (setting [3]) and in assay [2] (setting [4]) was over 1000 nM in each case.
Regarding `COC(=O)c1cc(S(=O)(=O)N2CCN(C(C)=O)C[C@@H]2C(=O)NCc2ccc(C(C)C)cc2)ccc1OC` [Example 235, 5-[(R)-4-acetyl-2-(4-isopropyl-benzylcarbamoyl)-piperazine-1-sulfonyl]-2-methoxy-benzoic acid methyl ester], the IC50 in assay [1] (setting [3]) and in assay [2] (setting [4]) was over 1000 nM throughout.
Regarding `O=C(NCc1ccc(OC(F)(F)F)cc1)[C@H]1CN(c2nn3cnnc3s2)CCN1S(=O)(=O)c1ccc(OC(F)(F)F)cc1` [Example 922, (R)-4-[1,2,4]triazolo[3,4-b][1,3,4]thiadiazol-6-yl-1-(4-trifluoromethoxy-benzenesulfonyl)-piperazine-2-carboxylic acid 4-trifluoromethoxy-benzylamide], the 50% inhibitory concentration (IC50) in assay [1] (setting [5]) and in assay [2] (setting [6]) was under 100 nM in each case.
For the compound `CC(=O)N1CCN(S(=O)(=O)c2ccc(N3CCOCC3)nc2)C(C(=O)NCc2ccc(C(F)(F)F)cc2)C1` (centres unmarked) [Example 70, 4-acetyl-1-(6-morpholin-4-yl-pyridine-3-sulfonyl)-piperazine-2-carboxylic acid 4-trifluoromethyl-benzylamide hydrochloride], the IC50 in assay [1] (setting [3]) and in assay [2] (setting [4]) was over 1000 nM throughout.
For `CC(=O)N1CCN(S(=O)(=O)c2ccc(OC(F)(F)F)cc2)C(C(=O)NCc2ccc(C(F)(F)F)cc2)C1` (centres unmarked) [Example 65, 4-acetyl-1-(4-trifluoromethoxy-benzenesulfonyl)-piperazine-2-carboxylic acid 4-trifluoromethyl-benzylamide], the IC50 in assay [1] (setting [3]) and in assay [2] (setting [4]) was over 1000 nM each time.
On to `CCC(F)(F)c1ccc(CNC(=O)[C@H]2CN(C(C)=O)CCN2S(=O)(=O)c2ccc(OC(F)(F)F)cc2)cc1` [Example 459, (R)-4-acetyl-1-(4-trifluoromethoxy-benzenesulfonyl)-piperazine-2-carboxylic acid 4-(1,1-difluoro-propyl)-benzylamide], for which the IC50 in assay [1] (setting [3]) and in assay [2] (setting [4]) was under 100 nM each time.
On to `CCc1ccc(S(=O)(=O)N2CCN(c3cnc4cncc(C(=O)O)c4n3)C[C@@H]2C(=O)NCc2ccc(C(C)(C)CC)cc2)cc1` [Example 854, 2-[(R)-3-[4-(1,1-dimethyl-propyl)-benzylcarbamoyl]-4-(4-ethyl-benzenesulfonyl)-piperazin-1-yl]-pyrido[3,4-b]pyrazine-8-carboxylic acid], for which the IC50 in assay [1] (setting [5]) and in assay [2] (setting [6]) was under 100 nM throughout.
Turning to `CC(=O)N1CCN(S(=O)(=O)c2ccc(C(F)(F)F)cc2)C(C(=O)NCc2ccc(C(F)(F)F)cc2)C1` (centres unmarked) [Example 45, 4-acetyl-1-(4-trifluoromethyl-benzenesulfonyl)-piperazine-2-carboxylic acid 4-trifluoromethyl-benzylamide], the IC50 in assay [1] (setting [3]) and in assay [2] (setting [4]) was over 1000 nM in each case.
On to `O=C(NCc1ccc(OC(F)F)cc1F)[C@H]1CN(c2nc3nc(C(F)(F)F)ncc3s2)CCN1S(=O)(=O)c1ccc(C(F)(F)F)cc1` [Example 1042, (R)-1-(4-trifluoromethyl-benzenesulfonyl)-4-(5-trifluoromethyl-thiazolo[4,5-d]pyrimidin-2-yl)-piperazine-2-carboxylic acid 4-difluoromethoxy-2-fluoro-benzylamide], for which the IC50 in assay [1] (setting [5]) and in assay [2] (setting [6]) was under 100 nM each time.
For `O=C(NCc1ccc(OC(F)(F)F)cc1)[C@H]1CN(c2ccc(=O)[nH]c2)CCN1S(=O)(=O)c1ccc(OC(F)(F)F)cc1` [Example 924, (R)-4-(6-oxo-1,6-dihydro-pyridin-3-yl)-1-(4-trifluoromethoxy-benzenesulfonyl)-piperazine-2-carboxylic acid 4-trifluoromethoxy-benzylamide hydrochloride], the IC50 in assay [1] (setting [5]) and in assay [2] (setting [6]) was 100 to 1000 nM each time.
As to `CCC(F)(F)c1ccc(CNC(=O)[C@H]2CN(c3nc4cn[nH]c(=O)c4s3)CCN2S(=O)(=O)c2ccc(C(F)(F)F)cc2)cc1` [Example 900, (R)-4-(7-oxo-6,7-dihydro-thiazolo[4,5-d]pyridazin-2-yl)-1-(4-trifluoromethyl-benzenesulfonyl)-piperazine-2-carboxylic acid 4-(1,1-difluoro-propyl)-benzylamide], the IC50 in assay [1] (setting [5]) and in assay [2] (setting [6]) was under 100 nM each time.
As to `CN(C)c1ccc(CNC(=O)[C@H]2CN(C(=O)CN3CCCC3)CCN2S(=O)(=O)c2ccc(I)cc2)cc1` [Example 159, (R)-1-(4-iodo-benzenesulfonyl)-4-(2-pyrrolidin-1-yl-acetyl)-piperazine-2-carboxylic acid 4-dimethylamino-benzylamide], the IC50 in assay [1] (setting [3]) and in assay [2] (setting [4]) was over 1000 nM in each case.
On to `CCC(F)(F)c1ccc(CNC(=O)[C@H]2CN(c3cnc(CN)c(N)n3)CCN2S(=O)(=O)c2ccc(OC(F)(F)F)cc2)cc1` [Example 638, (R)-6′-amino-5′-aminomethyl-4-(4-trifluoromethoxy-benzenesulfonyl)-3,4,5,6-tetrahydro-2H-[1,2′]bipyrazinyl-3-carboxylic acid 4-(1,1-difluoro-propyl)-benzylamide], for which the half-maximal inhibitory concentration (IC50) in assay [1] (setting [3]) and in assay [2] (setting [4]) was under 100 nM throughout.
With `Nc1nc(Cl)nc2nc(N3CCN(S(=O)(=O)c4ccc(OC(F)(F)F)cc4)[C@@H](C(=O)NCc4ccc(OC(F)(F)F)cc4)C3)sc12` [Example 962, (R)-4-(7-amino-5-chloro-thiazolo[4,5-d]pyrimidin-2-yl)-1-(4-trifluoromethoxy-benzenesulfonyl)-piperazine-2-carboxylic acid 4-trifluoromethoxy-benzylamide], the half-inhibitory concentration (IC50) in assay [1] (setting [5]) and in assay [2] (setting [6]) was under 100 nM in each case.
For the compound `CCC(F)(F)c1ccc(CNC(=O)[C@H]2CN(C(=O)Nc3nccs3)CCN2S(=O)(=O)c2ccc(OC(F)(F)F)cc2)cc1` [Example 554, (R)-4-(4-trifluoromethoxy-benzenesulfonyl)-piperazine-1,3-dicarboxylic acid 3-[4-(1,1-difluoro-propyl)-benzylamide] 1-thiazol-2-ylamide], the IC50 in assay [1] (setting [3]) was under 100 nM; in assay [2] (setting [4]), 100 to 1000 nM.
Taken in the same sequence, the figures for `CCCc1ccc(CNC(=O)[C@H]2CN(c3ccc(C(=O)O)nc3)CCN2S(=O)(=O)c2ccc(OC(F)(F)F)cc2)cc1` [Example 631, 5-[(R)-3-(4-propyl-benzylcarbamoyl)-4-(4-trifluoromethoxy-benzenesulfonyl)-piperazin-1-yl]-pyridine-2-carboxylic acid] were under 100 nM and under 100 nM.
Taken in the same sequence, the figures for `CCCc1ccc(S(=O)(=O)N2CCN(c3nc(C(=O)O)c(CO)s3)C[C@@H]2C(=O)NCc2ccc(C(C)C)cc2)cc1` [Example 535, 5-hydroxymethyl-2-[(R)-3-(4-isopropyl-benzylcarbamoyl)-4-(4-propyl-benzenesulfonyl)-piperazin-1-yl]-thiazole-4-carboxylic acid] were under 100 nM and under 100 nM.
As to `Cc1cc(=O)n2nc(N3CCN(S(=O)(=O)c4ccc(OC(F)(F)F)cc4)[C@@H](C(=O)NCc4ccc(OC(F)(F)F)cc4)C3)sc2n1` [Example 920, (R)-4-(7-methyl-5-oxo-5H-[1,3,4]thiadiazolo[3,2-a]pyrimidin-2-yl)-1-(4-trifluoromethoxy-benzenesulfonyl)-piperazine-2-carboxylic acid 4-trifluoromethoxy-benzylamide], the IC50 in assay [1] (setting [5]) is under 100 nM; in assay [2] (setting [6]), 100 to 1000 nM.
Regarding `CC(=O)N1CCN(S(=O)(=O)c2ccc(C(C)C)cc2)[C@@H](C(=O)NCc2ccc(C3CC3)cc2C)C1` [Example 323, (R)-4-acetyl-1-(4-isopropyl-benzenesulfonyl)-piperazine-2-carboxylic acid 4-cyclopropyl-2-methyl-benzylamide], the IC50 in assay [1] (setting [3]) and in assay [2] (setting [4]) was under 100 nM each time.
